The values that follow are results of earlier work, collected in US4868155A, “Dipeptidyl 4-0-,6-0-acyl-2-amino-2-deoxy-D-glucose compositions and methods of use in AIDS-immunocompromised human hosts” (Merck & Co., Inc., priority 1987, dated 1989).

Read-outs that look alike come from different tables or passages of the source.

For data set [1], the system named is Mycobacterium avium intracellulare. As to conditions: AIDS patients infected with Mycobacterium avium intracellulare.
The conditions of data set [2]: in vivo.
Another data set concerns AIDS related virus. As to conditions: for clinical benefit (symptoms, immune function) in AIDS / ARC patients: clinical trials; for virus replication in humans: patients.
Data set [3] has as its system reverse transcriptase in several retroviruses. As to conditions: in vitro.

On to `CO[C@H]1/C=C/O[C@@]2(C)Oc3c(C)c(O)c4c(c3C2=O)C2=NC3(CCN(CC(C)C)CC3)NC2=C(NC(=O)/C(C)=C\C=C\[C@H](C)[C@H](O)[C@@H](C)[C@@H](O)[C@@H](C)[C@H](OC(C)=O)[C@@H]1C)C4=O` [Ansamycin, rifabutin], for which the “efficacy against opportunistic infection” value in data set [1] is reported as “some efficacy”. `Cc1cn([C@H]2C[C@H](N=[N+]=[N-])[C@@H](CO)O2)c(=O)[nH]c1=O` [Azidothymidine, 3' azido 3'-deoxythymidine]: the oral absorption entry in data set [2] was “Well absorbed orally”. Consider `CC(C)(N1CC1C#N)N1CC1C(N)=O` (stereo not shown) [Azimexon], for which the “clinical benefit (symptoms, immune function) in AIDS / ARC patients” value (shortened to “clinical benefit … in AIDS / ARC patients”) in the data set with AIDS related virus is “improvements in symptoms and immune function in patients with ARC but not AIDS”. Moreover, for the setting “patients”, the “toxicity / side effects” value is on record as “mild hemolysis”. Take `CC(C)(S)[C@@H](N)C(=O)O` [D Penicillamine, 3-mercapto D valine]: the “virus replication in humans” value in the data set on AIDS related virus is “Inhibits HIV reproduction in humans”. Also, the T cell levels entry (13 AIDS patients with perpetually swollen glands) is on record as “temporarily depressed T cell levels”. Regarding `O=C(O)P(=O)(O)O` [Foscarnet, trisodium phosphonoformate], the “toxicity / side effects” value (human, in vivo) is reported as “serious side effects”. On to `CC(=O)Nc1ccc(C(=O)O)cc1.CC(=O)Nc1ccc(C(=O)O)cc1.CC(=O)Nc1ccc(C(=O)O)cc1.CC(O)CN(C)C.CC(O)CN(C)C.CC(O)CN(C)C.O=c1[nH]cnc2c1ncn2[C@@H]1O[C@H](CO)[C@@H](O)[C@H]1O` [Inosine granobex], for which the “clinical benefit … in AIDS / ARC patients” value in the data set with AIDS related virus is “improve immune function in ARC patients”. As for `NC(=O)c1ncn([C@@H]2O[C@H](CO)[C@@H](O)[C@H]2O)n1` [Ribavirin, 1 8 D ribofuranosyl-1,2,4-triazole-3-carboxamide], in the data set on AIDS related virus, the “clinical benefit … in AIDS / ARC patients” value was “improved immune function” and the “virus replication in humans” value was “inhibited viral replication”. Besides, the safety profile result (human, in vivo) is “acceptable”. In the case of `Cc1ccc(C(=O)Nc2ccc(S(=O)(=O)O)c3cc(S(=O)(=O)O)cc(S(=O)(=O)O)c23)cc1NC(=O)c1cccc(NC(=O)Nc2cccc(C(=O)Nc3cc(C(=O)Nc4ccc(S(=O)(=O)O)c5cc(S(=O)(=O)O)cc(S(=O)(=O)O)c45)ccc3C)c2)c1` [Suramin], the “clinical benefit … in AIDS / ARC patients” value in the data set with AIDS related virus is “little or no evidence of clinical improvement or immunologic recovery”. As to “ammonium 21 tungsto 9 antimoniate [HPA-23]”, the “growth of HIV” value in the data set with HIV is recorded as “some tendency to check the growth of HIV”. Besides, the “clinical benefit … in AIDS / ARC patients” value in the data set with AIDS related virus was “no therapeutic benefit”. For the same compound, the “inhibition of reverse transcriptase in several retroviruses” value in data set [3] is reported as “Inhibits reverse transcriptase in several retroviruses in vitro”.

As to α-Interferon, the “tumor regression in AIDS-related Kaposi's sarcoma” value in the data set with AIDS related virus (AIDS-related Kaposi's sarcoma cases) was “induced tumor regression in some AIDS-related Kaposi's sarcoma cases”.
